Like-named read-outs stand apart in the source and are kept apart here.

Data set [1] deals with brain AChE. Type of data set: biochemical. The conditions noted are these: Genidens genidens (catfish) brain AChE. The procedure:
(§1) The residual enzyme activities [Er] were evaluated.

Data set [2] deals with AChE. To be noted: read-out: IC50-30min; Genidens genidens, marine fish; cited from earlier work.
Data set [3] concerns AChE. The conditions noted are these: read-out: IC50-30min; Prochilodus lineatus, freshwater fish; cited from earlier work.
The test system of data set [4] is brain AChE. To be noted: read-out: IC50-30min; Gallus (chicken) brain AChE; cited from earlier work.
Data set [5] addresses T1, brain AChE (Gallus gallus, UniProt P36196).
T1 sequence (P36196 20-767): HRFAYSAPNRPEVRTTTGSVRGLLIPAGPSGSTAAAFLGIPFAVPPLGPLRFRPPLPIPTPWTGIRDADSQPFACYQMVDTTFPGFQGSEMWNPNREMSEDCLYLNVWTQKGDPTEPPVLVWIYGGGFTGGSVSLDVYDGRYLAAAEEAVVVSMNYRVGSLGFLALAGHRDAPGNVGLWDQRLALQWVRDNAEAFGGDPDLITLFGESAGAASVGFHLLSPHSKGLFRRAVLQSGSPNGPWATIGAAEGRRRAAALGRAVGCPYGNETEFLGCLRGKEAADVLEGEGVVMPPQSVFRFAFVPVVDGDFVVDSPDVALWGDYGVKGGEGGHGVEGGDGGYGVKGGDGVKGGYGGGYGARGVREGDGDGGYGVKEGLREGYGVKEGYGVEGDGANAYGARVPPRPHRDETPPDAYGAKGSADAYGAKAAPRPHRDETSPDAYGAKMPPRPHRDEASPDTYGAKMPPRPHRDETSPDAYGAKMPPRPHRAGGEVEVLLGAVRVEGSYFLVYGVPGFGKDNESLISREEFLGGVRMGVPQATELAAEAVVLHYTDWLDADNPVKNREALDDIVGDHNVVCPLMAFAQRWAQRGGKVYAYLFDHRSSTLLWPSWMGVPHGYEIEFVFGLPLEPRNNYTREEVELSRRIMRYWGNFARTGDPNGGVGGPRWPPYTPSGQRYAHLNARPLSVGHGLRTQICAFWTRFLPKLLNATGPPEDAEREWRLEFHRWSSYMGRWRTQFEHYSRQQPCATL
The conditions noted are these: Gallus domesticus (hen) brain AChE.
Procedure: Whole brains were suspended in buffer (1 g of tissue plus 10 mL sodium phosphate 0.1 M, pH 7.5) and homogenized in an ice bath using an Ultra-Turrax homogenizer. The homogenate was then centrifuged (5,000g/30 min/5°C), and the soluble fraction was discarded. The pellet was then resuspended using the same volume of a 0.1 g% Triton X-100 in a 0.1 M sodium phosphate, pH 7.5, solution, and re-homogenized. After a second centrifugation (15,000g/90 min/5°C), the supernatant resulting from the pellet ressolubilization, or “solubilized AChE—AchEsol” [7], was collected, frozen, and stored at -20°C. All assays were conducted at most 72 hours after production of the supernatant fractions (AChEsol).
Brain AChE activity was assayed spectrophotometrically in 0.1 M sodium phosphate Triton X-100 0.1 g% pH 7.5 by a modification of Ellman’s method [18], as described by Silva Filho and colleagues [7]. The specificity of AChE for substrates (P%) was calculated by the ratio of AChE activity when using propionylthiocholine as substrate divided by AChE activity when using acetylthiocholine: P%, [(activity with ProScol/activity with AceScol) x 100] (%) [6].
Inhibition kinetic constants (IKC) were obtained using the methods described by Kemp and Wallace [9] and Carr and Chambers [19], and by the equations proposed by Kitz and Wilson [10] and Main [12]. […]

For data set [6], the system named is AChE. The conditions noted are these: read-out: IC50-30min; Piaractus mesopotamicus, freshwater fish; cited from earlier work.
In data set [7] the test system is brain AChE. The conditions noted are these: read-out: IC50-30min; Rattus (rat) brain AChE; cited from earlier work.
Data set [8] concerns AChE. The conditions noted are these: read-out: IC50-30min; Percophis brasiliensis, marine fish; cited from earlier work.
Data set [9] relates to brain AChE. Type of data set: biochemical, Lagocephalus laevigatus. The protocol:
as §1

Data set [10] has as its system brain AChE. Type of data set: biochemical, Mugil liza. The conditions noted are these: for inhibition of AChE: mullet AChE, 1-5 min incubation. The procedure:
as §1

Consider `COP(=O)(OC)Oc1ccc([N+](=O)[O-])cc1` [methyl-paraoxon, dimethyl-4-nitrophenyl-phosphate], for which the “kp: phosphorylation rate constant” value in the data set with brain AChE [1] was 0.71 ± 0.1 min⁻¹; on brain AChE [5], 0.47 ± 0.1 min⁻¹; in the data set with brain AChE [9] (Lagocephalus laevigatus (puffer fish) brain AChE) it was 0.55 ± 0.08 min⁻¹; in the data set with brain AChE [10] (Mugil liza (mullet) brain AChE), 1.64 ± 0.6 min⁻¹. The “ki: Bimolecular reaction constant” value was 588 ± 26.7 M⁻¹ s⁻¹ on brain AChE [1] (pH 7.5, 0.1 g% Triton X-100); 15010 ± 1090 M⁻¹ s⁻¹ at brain AChE [5] (pH 7.5, 0.1 g% Triton X-100); 155 ± 12.7 M⁻¹ s⁻¹ on brain AChE [9] (Lagocephalus laevigatus (puffer fish) brain AChE, pH 7.5, 0.1 g% Triton X-100); 179.5 ± 11.5 M⁻¹ s⁻¹ on brain AChE [10] (Mugil liza (mullet) brain AChE, pH 7.5, 0.1 g% Triton X-100). Further, the Kd at brain AChE [1] (read-out: Kd: dissociation constant of enzyme-inhibitor complex (EI)) stood at 20.3 ± 2.95 µM; at brain AChE [9] (Lagocephalus laevigatus (puffer fish) brain AChE, read-out: Kd: dissociation constant of enzyme-inhibitor complex (EI)) it was 62.6 ± 14.7 µM; at brain AChE [10] (Mugil liza (mullet) brain AChE, read-out: Kd: dissociation constant of enzyme-inhibitor complex (EI)), 159 ± 59.6 µM. The IC50 was 0.455 µM in the data set on AChE [2]; 0.123 µM in the data set with AChE [3]; 0.037 µM in the data set with brain AChE [4]; 3.11 µM in the data set with AChE [6]; 0.029 µM in the data set on brain AChE [7]; 3.34 µM with AChE [8]. In addition, the IC50 was 2.84 ± 0.145 µM with brain AChE [9] (read-out: IC50: concentration that produced 50% inhibition of brain AChE activity in 30 min, Lagocephalus laevigatus (puffer fish), 30 min incubation, estimated using the ki) and 2.88 ± 0.422 µM in the data set with brain AChE [10] (read-out: IC50: concentration that produced 50% inhibition of brain AChE activity in 30 min, Mugil liza (mullet), 30 min incubation, estimated using the ki). Further, the “inhibition of AChE” value was “less than 10%” in the data set on brain AChE [10] (5μM of MP) and “higher than 90%” with brain AChE [10] (208μM of MP).

By Kd is commonly meant the constant that tells how readily two partners part at equilibrium.

(Values after paper PMC5031402 (PLoS ONE, 2016).)
